Data from patent US20090215725A1, “Substituted 4-aminocyclohexane derivatives” (GRUNENTHAL GMBH, priority 2008, published 2009).

Test system: Male Sprague Dawley rats
Assay: Chung model: mononeuropathic pain after spinal nerve ligation (mechanical allodynia, von Frey withdrawal threshold)
Format: in vivo
Settings: rat, FIG. 1

In the case of `CN(C)C1(c2ccccc2)CCC(COCc2c[nH]c3ccc(F)cc23)CC1` (stereo not drawn) [Example 10, 1-Phenyl-4-(((5-fluoro-1H-indol-3-yl)methoxy)methyl)-N,N-dimethylcyclohexanamine], the “effect on the undamaged, contralateral side” value (contralateral rear paw, tested dose) is reported as “only a very small and statistically insignificant effect”, the “rise in the withdrawal threshold” value (ipsilateral rear paw, spinal nerve ligation, allodynia fall from approx. 55 g to 25 g) is reported as “over 40 g” and the “allodynia condition (effectiveness in neuropathic pain)” value (ipsilateral side, spinal nerve ligation) is reported as “almost completely relieved”.
